According to article PMC11271627, “Molecular dynamics-guided optimization of BGM0504 enhances dual-target agonism for combating diabetes and obesity” (Scientific Reports, 2024):
Marks after values point to notes of the source that are not given here.

How the values were obtained:
db/db mice = assay: Blood glucose reducing effect in db/db mice model; type: in vivo; conditions: for Insulin in serum: 31 days, ELISA, three days after last dose, Mean±SD, n=11
Method: In contrast, the db/db-ND group received only the drug vehicle via subcutaneous injection. Three parallel experimental groups were established to explore the dose-dependent characteristics of BGM0504 in db/db mice: a low-dose group (0.05 mg/kg), a standard dose group (0.15 mg/kg), and a high-dose group (0.5 mg/kg), each comprising 11 db/db mice. Subsequent administrations were conducted every 3 days following the initial administration, and the experiment spanned 31 days. […] To thoroughly investigate the dose dependence of BGM0504 in db/db mice, we established additional dose groups, including a low-dose group at 0.05 mg/kg and a high-dose group at 0.5 mg/kg. Each experimental group comprised 11 db/db mice. Following the initial administration, subsequent doses were administered every 3 days, spanning a total of 31 days. Throughout this study, we meticulously observed and analyzed a spectrum of parameters encompassing changes in body weight, food intake, non-fasting blood glucose post-initial administration. In this experimental endeavor, we engaged 55 male db/db mice of SPF grade, procured at 6–8 weeks, from Zhejiang Vital River Laboratory Animal Technology Co., Ltd. The animals were divided into groups based on body weight and fasting blood glucose levels. […] The groups included the db/db-ND group, the Tirzepatide-0.15 mg/kg group, the BGM0504-0.05 mg/kg group, the BGM0504-0.15 mg/kg group, and the BGM0504-0.5 mg/kg group, each comprising 11 mice. […] Non-fasting blood glucose levels were measured at 0, 1, 2, 3, 6, 24, 48, and 72 hours post-administration. Three days after the last dose, the mice were weighed. Subsequently, a portion of non-anticoagulated whole blood was collected from the orbital venous plexus under anesthesia. Blood samples were left at room temperature for 30 minutes, then centrifuged at 5000 rpm for 5 minutes. The serum was separated and frozen at -80°C for serum insulin content testing. Serum insulin levels were measured using the enzyme-linked immunosorbent assay (ELISA) method.

[1] = target: T1, Human Serum Albumin (HSA) protein (Homo sapiens, UniProt P02768); assay: biochemical; type: binding
T1 construct: purified Human ALB (25–609)-His was immobilized
Source text: The buffer used was PBST (PBS with 0.02% Tween 20).

[2] = system: STZ + HFD-induced C57BL/6 mice; assay: STZ + HFD-induced diabetes and NASH model in C57BL/6 mice; type: in vivo; conditions: Mean±SEM; for Ballooning Degeneration score / Inflammatory Cell Infiltration score / NAS (NAFLD Activity Score) / Steatosis score: liver H&E staining; for Fibrosis percentage: liver Sirius red staining, fibrosis area of total section area; for ALT / AST: serum; for ALT: HFD 8 weeks
Method: Both the control and model groups received a subcutaneous injection of the drug vehicle, while only the model group was fed a high-fat diet (HFD). […] This experiment involved selecting 30 SPF grade C57BL/6 pregnant female mice provided by Shanghai Jihui Experimental Animal Breeding Co., Ltd. Newborn male mice underwent subcutaneous injection of STZ (streptozotocin) (100 μg each) within 48 hours after birth and were nursed by their mothers for 4 weeks. During this period, we measured the fasting blood glucose of the mice and selected 65 diabetic male mice with fasting blood glucose values greater than or equal to 12 mmol/L as experimental animals. These mice were fed a HFD for 8 weeks to establish the STZ + HFD-induced diabetes and Nonalcoholic Steatohepatitis (NASH) model in male C57BL/6 mice. Fasting blood sugar was detected after 1 week of HFD feeding in these NASH model mice. Based on fasting blood sugar and body weight, they were randomly divided into the model group, the Tirzepatide-0.15 mg/kg group, the BGM0504-0.05 mg/kg group, the BGM0504-0.15 mg/kg group, and the BGM0504-0.5 mg/kg group. The treatment groups received administration once every 3 days. Additionally, their mothers nursed 10 newborn male mice without STZ injection for 4 weeks and then fed a regular maintenance diet as a control group. After HFD feeding, body weights were measured, and the animals’ food intake was recorded every 3 days until the end of the experiment. Three days after the last dose, animal weights were measured. Following a 6-hour fasting period, all experimental animals were anesthetized with an intraperitoneal injection of sodium pentobarbital. Non-anticoagulated whole blood was collected through the orbital venous plexus, left at room temperature for 30 minutes, and centrifuged at 5000 rpm for 5 minutes. The serum was separated and stored at -80°C for biochemical testing. After thawing the frozen serum samples, serum ALT, AST, TG, TC, HDL-c and LDL-c levels […] were measured using a Hitachi 7060 automatic biochemical detector. Insulin content was determined using an enzyme-linked immunoassay kit. After the dissection procedure, the liver was perfused with pre-cooled saline and then obtained and photographed. Its weight was also measured. Subsequently, the liver was immersed in 10% formalin for fixation and divided into two parts. One part underwent pathological hematoxylin and eosin (H&E) staining. The H&E staining was conducted on paraffin sections of all animal livers following the KCI pathology staining standard operating procedure (SOP). These stained sections were panoramically scanned using a NanoZoomer Digital Pathology scanner. Different fields of view were selected for observation at various magnifications, and the liver lobes in the sections were scored. The other part was subjected to pathological Sirius red (SR) staining. Similarly, SR staining was performed on paraffin sections of the liver following the KCI pathology staining SOP. The stained sections were also panoramically scanned using the NanoZoomer Digital Pathology scanner. Subsequently, VIS7.0 software was utilized to analyze the liver fibrosis area in the panoramically examined SR-stained sections, and the percentage of the liver fibrosis area with the total section area was calculated.

[3] = 0.05 mg/kg once every 3 days, n=11
[4] = 0.15 mg/kg once every 3 days, n=13
[5] = 0.5 mg/kg once every 3 days, n=13

T1 sequence (P02768 25-609): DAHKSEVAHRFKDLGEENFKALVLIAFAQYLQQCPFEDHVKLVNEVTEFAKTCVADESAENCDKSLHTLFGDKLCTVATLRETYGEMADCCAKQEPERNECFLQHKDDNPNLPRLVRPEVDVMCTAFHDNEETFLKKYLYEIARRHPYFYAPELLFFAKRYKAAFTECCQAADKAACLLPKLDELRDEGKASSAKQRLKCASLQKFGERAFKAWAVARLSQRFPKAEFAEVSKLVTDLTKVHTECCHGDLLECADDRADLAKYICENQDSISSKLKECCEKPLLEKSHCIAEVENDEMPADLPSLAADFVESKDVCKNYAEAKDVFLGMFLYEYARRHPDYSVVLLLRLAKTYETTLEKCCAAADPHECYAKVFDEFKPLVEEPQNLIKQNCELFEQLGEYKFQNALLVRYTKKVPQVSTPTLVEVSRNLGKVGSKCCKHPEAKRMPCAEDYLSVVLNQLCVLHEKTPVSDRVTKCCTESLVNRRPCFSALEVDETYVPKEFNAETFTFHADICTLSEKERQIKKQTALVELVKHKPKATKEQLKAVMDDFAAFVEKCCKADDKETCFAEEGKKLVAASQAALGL

CC[C@H](C)[C@H](NC(=O)[C@H](CC(C)C)NC(=O)[C@H](Cc1c[nH]c2ccccc12)NC(=O)[C@H](CCC(N)=O)NC(=O)[C@@H](NC(=O)[C@H](Cc1ccccc1)NC(=O)[C@H](C)NC(=O)[C@H](CCCCN)NC(=O)[C@H](CCC(N)=O)NC(=O)[C@H](C)NC(=O)[C@@H](NC(=O)[C@H](CCCCN)NC(=O)[C@H](CC(=O)O)NC(=O)[C@H](CC(C)C)NC(=O)C(C)(C)NC(=O)[C@@H](NC(=O)[C@H](CO)NC(=O)[C@H](Cc1ccc(O)cc1)NC(=O)[C@H](CC(=O)O)NC(=O)[C@H](CO)NC(=O)[C@@H](NC(=O)[C@H](Cc1ccccc1)NC(=O)[C@@H](NC(=O)CNC(=O)[C@H](CCC(=O)O)NC(=O)C(C)(C)NC(=O)[C@@H](N)Cc1ccc(O)cc1)[C@@H](C)O)[C@@H](C)O)[C@@H](C)CC)[C@@H](C)CC)C(C)C)C(=O)N[C@@H](C)C(=O)NCC(=O)NCC(=O)N1CCC[C@H]1C(=O)N[C@@H](CO)C(=O)N[C@@H](CO)C(=O)NCC(=O)N[C@@H](C)C(=O)N1CCC[C@H]1C(=O)N1CCC[C@H]1C(=O)N1CCC[C@H]1C(=O)N[C@@H](CO)C(=O)N[C@@H](CCCCNC(=O)COCCOCCOCCNC(=O)COCCOCCOCCNC(=O)CC[C@H](NC(=O)CCCCCCCCCCCCCCCCCCC(=O)O)C(=O)O)C(N)=O [BGM0504]
Insulin in serum (db/db mice; 0.05 mg/kg s.c. every 3 days): 37649.0±3597.0^a nIU/mL
Insulin in serum (db/db mice; 0.15 mg/kg s.c. every 3 days): 30897.0±5634.0^a nIU/mL
Insulin in serum (db/db mice; 0.5 mg/kg s.c. every 3 days): 32774.0±6290.0^a nIU/mL
body weight and food intake (db/db mice; early stages of administration): acute decline in body weight and food intake
non-fasting blood glucose within 72 h after first administration, vs db/db-ND group (db/db mice; s.c., Tirzepatide 0.15 mg/kg, BGM0504 0.05, 0.15, 0.5 mg/kg, n = 11): significant blood glucose suppression
Kd [1]: 73 nM
HDL-c [2, 3]: 2.30 ± 0.09 mmol/L
LDL-c [2, 3]: 0.56±0.03^b mmol/L
TC [2, 3]: 3.81±0.15^c mmol/L
TG [2, 3]: 1.09±0.20^b mmol/L
HDL-c [2, 4]: 1.83 ± 0.22 mmol/L
LDL-c [2, 4]: 0.65±0.10^c mmol/L
TC [2, 4]: 3.25±0.12^c mmol/L
TG [2, 4]: 0.84±0.12^b mmol/L
HDL-c [2, 5]: 2.13 ± 0.13 mmol/L
LDL-c [2, 5]: 0.62±0.03^c mmol/L
TC [2, 5]: 3.53±0.09^c mmol/L
TG [2, 5]: 0.88±0.14^b mmol/L
Ballooning Degeneration score ([2]; 0.05 mg/kg, n=11): 0.00±0.00
Inflammatory Cell Infiltration score ([2]; 0.05 mg/kg, n=11): 0.91±0.08^a
NAS (NAFLD Activity Score) ([2]; 0.05 mg/kg, n=11): 1.42±0.14^a
Steatosis score ([2]; 0.05 mg/kg, n=11): 0.52±0.12^a
Ballooning Degeneration score ([2]; 0.15 mg/kg, n=13): 0.00±0.00^a
Inflammatory Cell Infiltration score ([2]; 0.15 mg/kg, n=13): 0.90±0.06^a
NAS (NAFLD Activity Score) ([2]; 0.15 mg/kg, n=13): 1.36±0.15^a
Steatosis score ([2]; 0.15 mg/kg, n=13): 0.46±0.13^a
Ballooning Degeneration score ([2]; 0.5 mg/kg, n=13): 0.00±0.00
Inflammatory Cell Infiltration score ([2]; 0.5 mg/kg, n=13): 1.03±0.05^a
NAS (NAFLD Activity Score) ([2]; 0.5 mg/kg, n=13): 1.36±0.10^a
Steatosis score ([2]; 0.5 mg/kg, n=13): 0.33±0.08^a
Fibrosis percentage ([2]; 0.05 mg/kg, n=11): 1.11±0.05^a %
Fibrosis percentage ([2]; 0.15 mg/kg, n=13): 1.10±0.04^b %
Fibrosis percentage ([2]; 0.5 mg/kg, n=13): 1.07±0.05^c %
ALT [2, 3]: 73.97±9.20 U/L
AST [2, 3]: 155.44±10.85 U/L
ALT [2, 4]: 67.58±7.73^a U/L
AST [2, 4]: 152.48±6.56^a U/L
ALT [2, 5]: 58.46±5.38^b U/L
AST [2, 5]: 150.54±6.26^a U/L
